The values below come from patent publication US4061748A, “7-(α-(4 -Hydroxy-1,5-naphthyridine-3-carbonamido)-α-phenylacetamido) cephalosporin derivatives” (Sumitomo Chemical Company, Limited, priority 1975, dated 1977).

The test system of series [1] is Pseudomonas aeruginosa T. Description: Median protective dose against intraperitoneal infection in mice. Format: in vivo, Pseudomonas aeruginosa; male ICR-SLC strain mice. The following applies: sc, two subcutaneous treatments, 1 and 4 hours after infection, read-out: PD50. The text has this: (§1) The relative activities of the compounds of the present invention, Compound (A) and Compound (B) against various intraperitoneal infections in mice evaluated by mean median protective doses (subcutaneously administered) are shown in Table 3.
(§2) For each test, eight male ICR-SLC strain mice were used at each dose

Series [2] can be described thus: Antibiotic serum concentrations in mice following subcutaneous administration (disc method bioassay). Format: in vivo, ICR-SLC strain mice. The following applies: mouse, sc, 50 mg/kg; for Cmax: read-out: Peak concentration. Here is the method:
The antibiotic serum concentrations of the six cephalosporins following subcutaneous administration at 50 mg/kg to ICR-SLC strain mice are shown in Table 2.
The bioassay was carried out according to the disc method using
Pseudomonas aeruginosa.

Series [3] concerns Escherichia coli No. 37. Briefly: Median protective dose against intraperitoneal infection in mice. Conditions: sc; Escherichia coli No. 37, intraperitoneal infection; two subcutaneous treatments, 1 and 4 hours after infection; read-out: PD50. The format is in vivo, Escherichia coli; male ICR-SLC strain mice.
Text: as §1, §2

Another series relates to Serratia No. 72. Briefly: Minimum inhibitory concentration, nutrient broth dilution method. The format is cell-based. Here is the method:
(§3) The minimum inhibitory concentrations obtained with the example compounds, Compound (A) and Compound (B), against the following organisms representing 6 genera are shown in Table 1.
(§4) MIC was determined by the nutrient broth dilution method.
(Dilution methods test growth across graded concentrations, often in twofold steps.)

Series [4] deals with Enterobacter aerogenes No. 75. Described as above. Format: cell-based. The following applies: Klebsiella aerogenes. As for the experimental part: as §3, §4
Series [5] concerns Pseudomonas aeruginosa T. Described as above. Format: cell-based. Here is the method: as §3, §4
The next series has as its system Escherichia coli NIHJ. The series is described as above. Format: cell-based. Here is the method: as §3, §4
Series [6] has as its system Klebsiella pneumoniae PCI 602. The description is as above. The following applies: PCI602. Format: cell-based. As for the experimental part: as §3, §4
The test system of series [7] is Proteus mirabilis GN 2425. The series is described as above. Format: cell-based. The following applies: GN2425. Here is the method:
as §3, §4

Series [8] deals with Serratia No. 75. Description: Median protective dose against intraperitoneal infection in mice. The format is in vivo, Serratia; male ICR-SLC strain mice. Conditions: sc; Serratia No. 75, intraperitoneal infection; two subcutaneous treatments, 1 and 4 hours after infection; read-out: PD50.
Text: as §1, §2

Series [9] concerns Serratia No. 75. Description: Minimum inhibitory concentration, nutrient broth dilution method (Table 3). Format: cell-based. As for the experimental part: as §4
Series [10] deals with Escherichia coli No. 37. Described as above. The format is cell-based. Here is the method:
as §4

Series [11] has as its system Enterobacter aerogenes No. 75. Description: Median protective dose against intraperitoneal infection in mice. The format is in vivo, Enterobacter aerogenes; male ICR-SLC strain mice. The following applies: Klebsiella aerogenes, sc; Enterobacter aerogenes No. 75, intraperitoneal infection; two subcutaneous treatments, 1 and 4 hours after infection; read-out: PD50.
Text: as §1, §2

Converted amounts (≈) assume the structure as drawn.

The MIC is the least concentration at which growth counts as inhibited. As for `CC(=O)OCC1=C(C(=O)O)N2C(=O)C(NC(=O)[C@H](NC(=O)c3cnc4ccccc4c3O)c3ccccc3)C2SC1` (stereo partly drawn) [Compound (A), sodium 7-[D-α-(4-hydroxyquinoline-3-carboxyamino)-α-phenylacetamido] cephalosporanate, reference compound], the ED50 was greater than 100 mg/kg in the series on Pseudomonas aeruginosa T [1], greater than 200 mg/kg in the series on Escherichia coli No. 37 [3], greater than 150 mg/kg with Serratia No. 75 [8] and 200 mg/kg in series [11]. In series [2], the Cmax was less than 900 ng/mL. Moreover, the MIC in the series with Serratia No. 72 turned out to be 100 µg/mL; in series [4] it was 25 µg/mL; against Pseudomonas aeruginosa T [5], 12.5 µg/mL; against Escherichia coli NIHJ it was 6.25 µg/mL; in series [6] it was 0.78 µg/mL; in [7], 25 µg/mL. The MIC in the series on Serratia No. 75 [9] came to 100 µg/mL; against Escherichia coli No. 37 [10], 12.5 µg/mL.
In general, half-life refers to the time in which the quantity being followed falls by half. A higher half-life goes with slow decline. `CC(=O)OCC1=C(C(=O)O)N2C(=O)C(NC(=O)[C@H](NC(=O)c3cnccc3O)c3ccccc3)C2SC1` (stereo partly drawn) [Compound (B), sodium 7-[D-α-(4-hydroxypyridine-3-carboxyamino)-α-phenylacetamido] cephalosporanate, reference compound]: the ED50 is 92 mg/kg in the series on Pseudomonas aeruginosa T [1], 170 mg/kg in the series on Escherichia coli No. 37 [3], greater than 150 mg/kg with Serratia No. 75 [8] and 170 mg/kg in series [11]. Also, the half-life in series [2] was 30 min. Also, in series [2], the Cmax was determined as 26000 ng/mL. Moreover, the MIC in the series on Serratia No. 72 was greater than 200 µg/mL; in series [4] it was 25 µg/mL; in the series on Pseudomonas aeruginosa T [5], 25 µg/mL; against Escherichia coli NIHJ it was 12.5 µg/mL; in series [6], 12.5 µg/mL; in series [7] it was 50 µg/mL. Moreover, the MIC was greater than 200 µg/mL against Serratia No. 75 [9] and 25 µg/mL with Escherichia coli No. 37 [10].
As for `CC(=O)OCC1=C(C(=O)O)N2C(=O)C(NC(=O)[C@H](NC(=O)c3cnc4cccnc4c3O)c3ccccc3)C2SC1` (stereo partly drawn) [Example 1, 7-[D-α-(4-Hydroxy-1,5-naphthyridine-3-carboxyamido)-α-phenylacetamido] cephalosporanic acid], the ED50 was found to be 18 mg/kg in the series with Pseudomonas aeruginosa T [1], 50 mg/kg with Escherichia coli No. 37 [3], 65 mg/kg in the series with Serratia No. 75 [8] and 50 mg/kg in series [11]. For the same compound, the half-life in [2] is 25 min. For the same compound, the Cmax in [2] is 44000 ng/mL. The minimum inhibitory concentration (MIC) turned out to be 50 µg/mL (≈ 86.6 µM) in the series on Serratia No. 72; 6.25 µg/mL (≈ 10.8 µM) in [4]; 6.25 µg/mL (≈ 10.8 µM) with Pseudomonas aeruginosa T [5]; 3.13 µg/mL (≈ 5.42 µM) in the series on Escherichia coli NIHJ; 1.56 µg/mL (≈ 2.7 µM) in series [6]; 12.5 µg/mL (≈ 21.6 µM) in series [7]. For the same compound, the MIC worked out at 50 µg/mL (≈ 86.6 µM) against Serratia No. 75 [9] and 6.25 µg/mL (≈ 10.8 µM) in the series with Escherichia coli No. 37 [10].
Take `Cc1nnc(SCC2=C(C(=O)O)N3C(=O)C(NC(=O)[C@H](NC(=O)c4cnc5cccnc5c4O)c4ccccc4)C3SC2)s1` (stereo partly drawn) [Example 2, 7-[D-α-(4-Hydroxy-1,5-naphthyridine-3-carboxyamido)-α-phenylacetamido]-3-(2-methyl-1,3,4-thiadiazole-5-yl)thiomethyl-3-cephem-4-carboxylicacid]: the ED50 with Pseudomonas aeruginosa T [1] was 23 mg/kg; in the series on Escherichia coli No. 37 [3] it was 41 mg/kg; in the series on Serratia No. 75 [8], 30 mg/kg; in series [11], 28 mg/kg. In [2], this compound displayed a half-life of 35 min. For the same compound, the Cmax in series [2] worked out at 38000 ng/mL. For the same compound, the MIC against Serratia No. 72 came to 12.5 µg/mL (≈ 19.2 µM); in series [4], 3.13 µg/mL (≈ 4.82 µM); in the series on Pseudomonas aeruginosa T [5] it was 6.25 µg/mL (≈ 9.62 µM); against Escherichia coli NIHJ, 1.56 µg/mL (≈ 2.4 µM); in [6], 0.78 µg/mL (≈ 1.2 µM); in [7] it was 12.5 µg/mL (≈ 19.2 µM). The results for the MIC in the series on Serratia No. 75 [9] and with Escherichia coli No. 37 [10] were 12.5 µg/mL (≈ 19.2 µM) and 6.25 µg/mL (≈ 9.62 µM), respectively.
`Cn1nnnc1SCC1=C(C(=O)O)N2C(=O)C(NC(=O)[C@H](NC(=O)c3cnc4cccnc4c3O)c3ccccc3)C2SC1` (some centres unmarked) [Example 3]: the ED50 in the series on Pseudomonas aeruginosa T [1] was 28 mg/kg; in the series on Escherichia coli No. 37 [3], 28 mg/kg; with Serratia No. 75 [8] it was 25 mg/kg; in series [11], 25 mg/kg. The half-life in series [2] amounted to 25 min. The Cmax in series [2] amounted to 24000 ng/mL. For the same compound, the MIC against Serratia No. 72 worked out at 12.5 µg/mL (≈ 19.7 µM); in [4], 3.13 µg/mL (≈ 4.94 µM); against Pseudomonas aeruginosa T [5], 12.5 µg/mL (≈ 19.7 µM); against Escherichia coli NIHJ it was 0.78 µg/mL (≈ 1.23 µM); in [6] it was 0.39 µg/mL (≈ 0.615 µM); in [7] it was 12.5 µg/mL (≈ 19.7 µM). Further, the MIC in the series with Serratia No. 75 [9] was determined as 6.25 µg/mL (≈ 9.86 µM); in the series with Escherichia coli No. 37 [10], 3.13 µg/mL (≈ 4.94 µM).
Regarding `O=C(O)C1=C(CSc2cnn[nH]2)CSC2C(NC(=O)[C@H](NC(=O)c3cnc4cccnc4c3O)c3ccccc3)C(=O)N12` (stereo partly drawn) [Example 4, 7-[d-α-(4-hydroxy-1,5-naphthyridine-3-carboxyamido)-α-phenylacetamido]-3-(1,2,3-triazole-5-yl)thiomethyl-3-cephem-4-carboxylic acid], the ED50 with Pseudomonas aeruginosa T [1] is 30 mg/kg; with Escherichia coli No. 37 [3], 45 mg/kg; in the series on Serratia No. 75 [8] it was 30 mg/kg; in [11] it was 30 mg/kg. In addition, the half-life in [2] stood at 30 min. Also, the Cmax in series [2] is 26000 ng/mL. The MIC was found to be 25 µg/mL (≈ 40.4 µM) in the series on Serratia No. 72; 3.13 µg/mL (≈ 5.06 µM) in series [4]; 12.5 µg/mL (≈ 20.2 µM) against Pseudomonas aeruginosa T [5]; 1.56 µg/mL (≈ 2.52 µM) against Escherichia coli NIHJ; 1.56 µg/mL (≈ 2.52 µM) in series [6]; 25 µg/mL (≈ 40.4 µM) in [7]. For the same compound, the values for the MIC against Serratia No. 75 [9] and with Escherichia coli No. 37 [10] were 12.5 µg/mL (≈ 20.2 µM) and 6.25 µg/mL (≈ 10.1 µM), respectively.
